Results published in patent publication US10676440B2, “Crystalline forms of an NK-1 antagonist” (Helsinn Healthcare SA, priority 2014, dated 2020).

What was measured:
Assay type in all cases: physicochemical
[1] = Moisture adsorption/desorption (DVS), hygroscopicity; details: for Hygroscopicity (weight change 0 to 90%-RH) / Hygroscopicity classification: 25° C., 0% RH to 90% RH; for Hygroscopicity classification: European Pharmacopoeia classes
Experimental: Moisture Adsorption/Desorption data was collected on a DVS-1 (SMS Surface Measurements Systems) moisture balance system. The sorption/desorption isotherms were measured stepwise in a range of 0% RH to 90% RH at 25° C. A weight change of <0.002 mg/min was chosen as the criterion to switch to the next level of relative humidity (with a maximum equilibration time of 6 hours if the weight criterion was not met). The data were corrected for the initial moisture content of the samples so that the weight after drying the sample at 0% relative humidity was taken as the zero point. The hygroscopicity of a given substance was characterized, in accordance with the European Phamacopoeia (Technical Guide 1999), by the increase in mass when the relative humidity is raised from 0% RH to 90% RH, as defined below (where weight increase=x):
Slightly hygroscopic: 0.2%≤x<2.0%
Very hygroscopic: x≥15.0%
Deliquescent: Sufficient liquid as adsorbed to form a liquid

[2] = Gravimetric solubility of Form I in solvents
Experimental: Solubility was determined gravimetrically. A weighted sample of Form I was suspended in a defined amount of solvent. After equilibration and solvent-liquid separation, the weight of the saturated liquid was determined. The solvent was then evaporated, the solid residue dried to dryness and weighed. The solubility is reported as weight of solid substance dissolved divided by the weight of the solution.

[3] = Stability of ground and kneaded Form I by XRPD; details: ball milling 10 min
Experimental: An untreated sample of Form I was ground by ball milling in a Retsch MM 200 grinder for 10 min at a frequency of 30 Hz. The sample was then analyzed by XRPD to determine its diffraction pattern. The stability of the ground sample was determined by comparing the diffraction pattern of the ground sample with that of the reference sample. […] In FIG. 26, the XRPD pattern for the Form I reference sample is shown in black and the pattern for the ground sample is shown in blue.
An untreated sample of Form I was ground by ball milling in a Retsch MM 200 grinder for 10 min at a frequency of 30 Hz with a catalytic amount of water. The sample was then analyzed by XRPD to determine its diffraction pattern. The stability of the kneaded sample was determined by comparing the diffraction pattern of the kneaded sample with that of the reference sample. […] In FIG. 27, the XRPD pattern for the Form I reference sample is shown in black and the XRPD pattern for the kneaded sample is shown in red.

[4] = Solid form stability of Form II (ambient storage, humidity, water suspension)
Experimental: Form II was confirmed as a crystalline solid according to XRPD analysis. The XRPD pattern of Form II is shown in FIG. 17 and the peak data is given below in Table 7. […] The red pattern was recorded after storing Form II for 1 h and 20 min under ambient conditions.
Thermogravimetry coupled to Fourier Transform (TGA-FT) measurements taken during the conversion show a loss of trifluoroethanol above 100° C.

[5] = Approximate solubility in water at rt

Cc1ccccc1-c1cc(N2CCN(C)CC2)ncc1N(C)C(=O)C(C)(C)c1cc(C(F)(F)F)cc(C(F)(F)F)c1 [Amorphous Form, 2-(3,5-bis(trifluoromethyl)phenyl)-N,2-dimethyl-N-(6-(4-methylpiperazin-1-yl)-4-(o-tolyl)pyridin-3-yl)propanamide]
crystallization during the sorption isotherm measurement [1]: No crystallization could be observed
Hygroscopicity (weight change 0 to 90%-RH) [1]: 1.5%
Hygroscopicity classification [1]: slightly hygroscopic
moisture adsorbed ([1]; two cycles): up to 1.5 % w/w

Cc1ccccc1-c1cc(N2CCN(C)CC2)ncc1N(C)C(=O)C(C)(C)c1cc(C(F)(F)F)cc(C(F)(F)F)c1 [Form I, 2-(3,5-bis(trifluoromethyl)phenyl)-N,2-dimethyl-N-(6-(4-methylpiperazin-1-yl)-4-(o-tolyl)pyridin-3-yl)propanamide]
Solubility (% m/m) ([2]; 25° C., 1-Butanol): >11.6 % m/m
Solubility (% m/m) ([2]; 25° C., 2-Butanone): >11.2 % m/m
Solubility (% m/m) ([2]; 25° C., Acetone): >11.1 % m/m
Solubility (% m/m) ([2]; 25° C., Acetonitrile): 9 % m/m
Solubility (% m/m) ([2]; 25° C., Cyclohexane): 4.2 % m/m
Solubility (% m/m) ([2]; 25° C., Dichloroethane): >7.0 % m/m
Solubility (% m/m) ([2]; 25° C., Dioxane): >9.0 % m/m
Solubility (% m/m) ([2]; 25° C., Ethanol): >11.5 % m/m
Solubility (% m/m) ([2]; 25° C., Heptane): 1.2 % m/m
Solubility (% m/m) ([2]; 25° C., Isopropyl Acetate): 22.2 % m/m
Solubility (% m/m) ([2]; 25° C., Methanol): >11.9 % m/m
Solubility (% m/m) ([2]; 25° C., N,N-Dimethylformamide): >9.9 % m/m
Solubility (% m/m) ([2]; 25° C., Tetrahydrofuran): >9.9 % m/m
Solubility (% m/m) ([2]; 25° C., Toluene): >10.8 % m/m
Solubility (% m/m) ([2]; 25° C., Trifluoroethanol): >7.5 % m/m
Solubility (% m/m) ([2]; 25° C., Water): <0.1 % m/m
Solubility (% m/m) ([2]; 25° C., Water/Acetone 1:2): 7.0 % m/m
Solubility (% m/m) ([2]; 25° C., Water/Acetone 2:1): 0.2 % m/m
Solubility (% m/m) ([2]; 25° C., Water/Acetonitrile 1:2): 6.2 % m/m
Solubility (% m/m) ([2]; 25° C., Water/Acetonitrile 2:1): 0.5 % m/m
Solubility (% m/m) ([2]; 25° C., Water/Dioxane 1:2): 4.9 % m/m
Solubility (% m/m) ([2]; 25° C., Water/Dioxane 2:1): 0.1 % m/m
Solubility (% m/m) ([2]; 25° C., Water/Ethanol 1:2): 3.1 % m/m
Solubility (% m/m) ([2]; 25° C., Water/Ethanol 2:1): 0.1 % m/m
Solubility (% m/m) ([2]; 25° C., Water/Methanol 1:2): 1.0 % m/m
Solubility (% m/m) ([2]; 25° C., Water/Methanol 2:1): 0.2 % m/m
Solubility (% m/m) ([2]; 25° C., Xylene): 18.4 % m/m
Solubility (% m/m) ([2]; 60° C., 1-Butanol): 29.9 % m/m
Solubility (% m/m) ([2]; 60° C., 2-Butanone): >52.6 % m/m
Solubility (% m/m) ([2]; 60° C., 2-Propanol): 26.2 % m/m
Solubility (% m/m) ([2]; 60° C., Acetone): >53.3 % m/m
Solubility (% m/m) ([2]; 60° C., Acetonitrile): 14.4 % m/m
Solubility (% m/m) ([2]; 60° C., Cyclohexane): 16.0 % m/m
Solubility (% m/m) ([2]; 60° C., Dichloroethane): 34.7 % m/m
Solubility (% m/m) ([2]; 60° C., Dioxane): >41.6 % m/m
Solubility (% m/m) ([2]; 60° C., Ethanol): 33.1 % m/m
Solubility (% m/m) ([2]; 60° C., Ethyl Acetate): 45.9 % m/m
Solubility (% m/m) ([2]; 60° C., Heptane): 3.0 % m/m
Solubility (% m/m) ([2]; 60° C., Isopropyl Acetate): >35.0 % m/m
Solubility (% m/m) ([2]; 60° C., Methanol): 48.4 % m/m
Solubility (% m/m) ([2]; 60° C., N,N-Dimethylformamide): 40.7 % m/m
Solubility (% m/m) ([2]; 60° C., Tetrahydrofuran): >50.4 % m/m
Solubility (% m/m) ([2]; 60° C., Toluene): 48.8 % m/m
Solubility (% m/m) ([2]; 60° C., Trifluoroethanol): >39.1 % m/m
Solubility (% m/m) ([2]; 60° C., Water): <0.1 % m/m
Solubility (% m/m) ([2]; 60° C., Water/Acetone 1:2): 11.7 % m/m
Solubility (% m/m) ([2]; 60° C., Water/Acetone 2:1): <0.1 % m/m
Solubility (% m/m) ([2]; 60° C., Water/Acetonitrile 1:2): 6.4 % m/m
Solubility (% m/m) ([2]; 60° C., Water/Acetonitrile 2:1): <0.1 % m/m
Solubility (% m/m) ([2]; 60° C., Water/Dioxane 1:2): 21.1 % m/m
Solubility (% m/m) ([2]; 60° C., Water/Dioxane 2:1): <0.1 % m/m
Solubility (% m/m) ([2]; 60° C., Water/Ethanol 1:2): 5.5 % m/m
Solubility (% m/m) ([2]; 60° C., Water/Ethanol 2:1): <0.1 % m/m
Solubility (% m/m) ([2]; 60° C., Water/Methanol 1:2): 0.4 % m/m
Solubility (% m/m) ([2]; 60° C., Water/Methanol 2:1): <0.1 % m/m
Solubility (% m/m) ([2]; 60° C., Xylene): >35.0 % m/m
stability of the ground sample (XRPD vs reference) ([3]; 30 Hz): loss of crystallinity
stability of the kneaded sample (XRPD vs reference) ([3]; 30 Hz with a catalytic amount of water): increased degree of crystallinity
Hygroscopicity (weight change 0 to 90%-RH) [1]: 0.1%
Hygroscopicity classification [1]: non-hygroscopic
weight gain during the drying step and the first adsorption segment ([1]; first cycle, likely due to electrostatic charges): about 0.3%
weight loss in the second cycle ([1]; second cycle): 0.1%

Cc1ccccc1-c1cc(N2CCN(C)CC2)ncc1N(C)C(=O)C(C)(C)c1cc(C(F)(F)F)cc(C(F)(F)F)c1 [Form II, 2-(3,5-bis(trifluoromethyl)phenyl)-N,2-dimethyl-N-(6-(4-methylpiperazin-1-yl)-4-(o-tolyl)pyridin-3-yl)propanamide]
conversion at 80% relative humidity ([4]; 80% relative humidity): convert to Form I
stability under ambient conditions ([4]; ambient conditions, XRPD): unstable under ambient conditions and converts to Form I
conversion after storing under ambient conditions ([4]; stored 1 h and 20 min under ambient conditions, XRPD): partial conversion to Form I
conversion upon suspension equilibration in water ([4]; suspension equilibration in water): convert to Form I

Cc1ccccc1-c1cc(N2CCN(C)CC2)ncc1N(C)C(=O)C(C)(C)c1cc(C(F)(F)F)cc(C(F)(F)F)c1 [Form III, 2-(3,5-bis(trifluoromethyl)phenyl)-N,2-dimethyl-N-(6-(4-methylpiperazin-1-yl)-4-(o-tolyl)pyridin-3-yl)propanamide]
solubility [5]: < 1000 µg/mL
